# Measured values as given in patent publication US10765625B2, “Knottin-drug conjugates and methods of using the same” (THE BOARD OF TRUSTEES OF THE LELAND STANFORD JUNIOR …, priority 2016, dated 2020).
# Where two headings read alike, the source gives them in different places.
# Tests used:
# [1] = test system: U87MG cells; test: Cell proliferation, CCK-8 colorimetric assay; format: cell-based
# Method: (§1) U87MG, and PANC-1 cells were grown in Dulbecco's Modified Eagle Medium (DMEM) with 10% fetal bovine serum (FBS) and 1% penicillin/streptomycin. MDA-MB-468 cells were grown in DMEM and Ham's F-12 medium (DMEM/F12) with 10% FBS and 1% penicillin/streptomycin. A2780 and BxPC3 cells were grown in Roswell Park Memorial Institute medium (RPMI) 1640+L-glutamine, with 10% FBS and 1% penicillin/streptomycin. D270 cells were grown in MEM (Richter's modification, no phenol red) with 10% FBS and 0.1% Gentamicin. Unless otherwise specified, cells were incubated at 37° C., 5% CO2. Flow cytometry was performed using an EMD Millpore Guava EasyCyte 8HT flow cytometer and the resulting data were evaluated using FlowJo software provided by TreeStar, Inc. Cell proliferation was measured using the Dojindo Cell Counting Kit-8 by replacing the media in each well with 100 μL of media containing 10% WST-8. After incubation for 1 h at 37° C., absorbance, A, at 450 nm was measured with a BioTek Synergy H4 microtiter plate reader. The background signal of CCK-8 alone was subtracted from all samples. Cell proliferation was then expressed as a percentage of absorbance relative to the control of untreated cells (Equation 2). Nonlinear regression analysis was performed using GraphPad Prism.
# Next, the potency of each KDC was tested in a cell-proliferation experiment. […] Cells were seeded in a 96-well plate at a density of 2,500 cells per well and grown overnight at 37° C., 5% CO2 in DMEM with 10% FBS and 1% penicillin/streptomycin. Cells were subsequently treated with 100 μL of fresh media, containing varying concentrations of drug, protein, or protein-drug conjugate and incubated for 4 d at 37° C., 5% CO2. Cell proliferation was measured according to the method described in Section 1.3. Error bars represent the standard deviation of experiments performed in triplicate. […] Given that the linker must be cleaved to release free Gemcitabine in order for the payload to become active, the low potency of 5b can be explained by the greater stability of the carbamate group as compared to the other linkers tested.
# [2] = test system: U87MG cells; test: Premature drug release study: cell proliferation (CCK-8) with hENT1 inhibitor 6 co-administered; format: cell-based; conditions: for Effect of hENT1 inhibitor 6 on potency (ED50) (in words): U87MG cells, increasing concentrations of 6 up to 10 μM; for Fold Increase in ED50 in U87MG Cells: ED50 with 6 / ED50 without 6, minus 1
# Method: as §1
# The relative extent of premature drug-release in the cases of 5a, 5c, and 5d was next determined in order to identify the linker best-suited for delivering the drug payload intracellularly. An established technique for blocking the cellular uptake of Gemcitabine by using S (4-nitrobenzyl)-6-thioinosine (6) was employed, which is known to inhibit human equilibrative nucleoside transporters, such as hENT1. Because hENT1 is a critical regulator of the cellular internalization of Gemcitabine, it was reasoned that by inhibiting its activity with 6, the cytotoxic effect of any drug payload that was released in the extracellular environment could be diminished. It was anticipated that this would allow the distinction between KDCs that were potent due to the undesirable release of Gemcitabine outside of the cell from those that released Gemcitabine intracellularly (FIG. 6). The extent of premature drug release in the extracellular environment was studied by inhibiting activity of nucleoside transporters (such as hENT1) of U87MG cells through the use of the hENT1 inhibitor S-(4-nitrobenzyl)-6-thioinosine (6). […] In a similar fashion, it was expected that for KDCs which released a significant amount of the drug payload in the extracellular environment, an increase in the concentration of 6 should result in a concomitant increase in ED50 value.
# Media used to prepare varying concentrations of drug, protein, or protein-drug conjugate also contained varying concentrations of the hENT1 inhibitor, 6. Additionally, prior to treatment, cell were incubated at 37° C., 5% CO2 with fresh media containing the varying concentrations of 6 for 2 h. Cell proliferation was measured using the Cell Counting Kit-8 by replacing the media in each well with 100 μL of media containing 10% WST-8. After incubation for 1 h at 37° C., absorbance at 450 nm was measured with a Synergy H4 microtiter plate reader. ED50 values were determined by nonlinear regression analysis. Example dose-response curves for 3 (FIG. 7) and 5d (FIG. 8) are provided. Cell proliferation was measured according to the method described in Section 1.3. Error bars represent the standard deviation of experiments performed in triplicate.
# These values were normalized as Fold Increase in ED50 (defined in Equation 2) by dividing the ED50 of each drug when 6 was co-administered at concentration=C by the ED50 of that same drug when no 6 was added, then subtracting 1 (thus, a “0-fold increase” would mean no increase, while a “1-fold increase” would mean that the ED50 value had doubled). Fold Increase in ED50 for each drug at each concentration of 6 is provided in Table 5, and these values were used to generate FIG. 9.
# [3] = test system: U87MG cells; test: Competition binding assay with AF488-labeled EETI-2.5F (AF488-1), flow cytometry; conditions: competition with 1 nM AF488-1, 4° C., 3 hours, read-out: IC50 (nM), binding affinity
# Method: Once the knottin-drug conjugates 5a-d were prepared, their binding affinity to U87MG glioblastoma cells, which are known to have elevated expression of tumor-associated integrins, was tested. […] To measure the relative binding affinities of knottins 1 and 2 and KDCs 5a-d, competition binding assays were performed using AlexaFluor 488-conjugated EETI-2.5F (AF488-1) as previously described (J. W. Kim, et al., J. Am. Chem. Soc. 2015, 137, 6-9). Cells (5×10^4 per sample) were detached with 0.05% Trypsin-EDTA, washed with IBB (25 mM Tris pH 7.4, 150 mM NaCl, 2 mM CaCl2, 1 mM MgCl2, 1 mM MnCl2, and 0.1% bovine serum albumin), and incubated with 1 nM AF488-1 and varying concentrations of competitors in 800 μL of IBB at 4° C. for 3 hours. The cells were washed twice with 800 μL of PBSA (phosphate buffered saline containing 0.1% bovine serum albumin) and the fluorescence of the surface-bound AF488-1 was determined using flow cytometry. The fluorescence was normalized to that of cells treated with AF488-1 alone to obtain the fraction bound. Half-maximal inhibitory concentration (IC50) values were determined by nonlinear regression analysis. Error bars represent the standard deviation of experiments performed in triplicate.
# [4] = test system: U87MG cells; test: Integrin-blocking competition: cell proliferation (CCK-8) after pre-treatment with EETI-2.5F (1); format: cell-based; conditions: 1 μM 1, 3 h pre-treatment and co-treatment
# Method: as §1
# One possible explanation for the apparent hENT1-independence of 5d is that its route of internalization could be integrin-mediated. The role of integrin-binding in the biological potency and hENT1-independence of 5d was determined. A competition experiment was carried out in which U87MG cells were pre-treated with unconjugated EETI-2.5F (1) in order to block integrins on the cell surface. The role of integrin-binding was studied by measuring the proliferation of U87MG cells that had been pre-treated with EETI-2.5F (1) when exposed to increasing doses of 3 and KDCs 5a, 5c, and 5d. […] Media used to prepare varying concentrations of drug, protein, or protein-drug conjugate also contained 1 μM of 1. Prior to treatment, cells were incubated for 3 h at 37° C., 5% CO2 with fresh media containing 1 μM 1. After this pre-treatment, cells were incubated with varying concentrations of 5a, 5c, or 5d for 24 h and then media was replaced with fresh media and cells were incubated for an additional 48 h. Cell proliferation was measured using the Cell Counting Kit-8 by replacing the media in each well with 100 μL of media containing 10% WST-8. After incubation for 1 h at 37° C., absorbance at 450 nm was measured with a Synergy H4 microtiter plate reader. Cell proliferation was measured according to the method described in Section 1.3. Error bars represent the standard deviation of experiments performed in triplicate.
# [5] = test system: MDA-MB-468 breast cancer cells; test: Cell proliferation, CCK-8 colorimetric assay; format: cell-based; conditions: Homo sapiens, MDA-MB-468, 96 h, 4 d after treatment, read-out: ED50 (nM), cell growth inhibition
# Method: as §1
# (§2) Having identified KDC 5d as a potent inhibitor of U87MG cells with desirable payload-release properties, its efficacy against a variety of other cell lines in comparison with Gemcitabine (3) was next tested. Cells were seeded in a 96-well plate at a density of 2,500 cells per well and grown overnight at 37° C., 5% CO2 in the media described in Section 1.3. Cells were subsequently treated with 100 μL of fresh media, containing 50 nM of 3 or 5d. Cells were incubated at 37° C., 5% CO2 for 4 d. Cell proliferation was measured using the Cell Counting Kit-8 by replacing the media in each well with 100 μL of media containing 10% WST-8. After incubation for 1 h at 37° C., absorbance at 450 nm was measured with a Synergy H4 microtiter plate reader. Cell proliferation was measured according to the method described in Section 1.3. Error bars represent the standard deviation of experiments performed in triplicate.
# [6] = test system: BxPC3 pancreatic cancer cells; test: Cell proliferation, CCK-8 colorimetric assay; format: cell-based; conditions: Homo sapiens, BXPC-3, 96 h, 4 d after treatment, read-out: ED50 (nM), cell growth inhibition
# Method: as §1, §2
# [7] = test system: A2780 ovarian cancer cells; test: Cell proliferation, CCK-8 colorimetric assay; format: cell-based; conditions: Homo sapiens, 96 h, 4 d after treatment, read-out: ED50 (nM), cell growth inhibition
# Method: as §1, §2
# [8] = test system: PANC-1 pancreatic cancer cells; test: Cell proliferation, CCK-8 colorimetric assay; format: cell-based; conditions: Homo sapiens, 96 h, 4 d after treatment, read-out: ED50 (nM), cell growth inhibition
# Method: as §1, §2
# [9] = test system: D270 glioblastoma cells; test: Cell proliferation, CCK-8 colorimetric assay; format: cell-based; conditions: 96 h, 4 d after treatment, read-out: ED50 (nM), cell growth inhibition
# Method: as §1, §2
"EC50 ([1]; Homo sapiens, U-87 MG, 96 h, U87MG cells, 4 d incubation, vs untreated control, read-out: ED50 (nM), potency) [nM]","EC50 ([1]; Homo sapiens, U-87 MG, 96 h, U87MG glioblastoma, 4 d after treatment, read-out: ED50 (nM), cell growth inhibition) [nM]",EC50 [5] [nM],EC50 [6] [nM],EC50 [7] [nM],EC50 [8] [nM],EC50 [9] [nM],SMILES,"Potency / growth inhibition in U87MG cells (in words) ([1]; U87MG cells, 4 d)","EC50 ([1]; U87MG cells, 4 d incubation, vs untreated control, read-out: ED50 (nM), potency) [nM]",Effect of hENT1 inhibitor 6 on potency (ED50) (in words) [2],Fold Increase in ED50 in U87MG Cells ([2]; [6] = 0 nM),Fold Increase in ED50 in U87MG Cells ([2]; [6] = 1 nM),Fold Increase in ED50 in U87MG Cells ([2]; [6] = 10 nM),Fold Increase in ED50 in U87MG Cells ([2]; [6] = 100 nM),Fold Increase in ED50 in U87MG Cells ([2]; [6] = 1000 nM),Fold Increase in ED50 in U87MG Cells ([2]; [6] = 10000 nM),IC50 [3] [nM],Effect of integrin blocking by pre-treatment with 1 on potency (in words) [4]
–,–,–,–,–,–,–,CC(C)C[C@@H]1NC(=O)[C@@H]2CSSC[C@@H](C(=O)NCC(=O)O)NC(=O)[C@H](Cc3ccccc3)NC(=O)CNC(=O)[C@H](CC(N)=O)NC(=O)[C@@H]3CCCN3C(=O)CNC(=O)[C@@H]3CSSC[C@H](NC(=O)[C@H]([C@@H](C)O)NC(=O)[C@H](CC(C)C)NC(=O)[C@@H]4CCCN4C(=O)[C@@H]4CCCN4C(=O)[C@H](CC(N)=O)NC(=O)[C@H](CC(=O)O)NC(=O)CNC(=O)[C@H](CCCNC(=N)N)NC(=O)[C@@H]4CCCN4C(=O)[C@H](CCCNC(=N)N)NC(=O)[C@@H]4CCCN4C(=O)[C@@H](NC(=O)CN)CSSC[C@H](NC(=O)CNC(=O)[C@H](C)NC1=O)C(=O)N[C@@H](C(C)C)C(=O)N3)C(=O)N[C@@H](CCCn1cc(CCC(=O)Nc3ccn([C@@H]4O[C@H](CO)[C@@H](O)C4(F)F)c(=O)n3)nn1)C(=O)N[C@@H](CCC(N)=O)C(=O)N[C@@H](CC(=O)O)C(=O)N[C@@H](CO)C(=O)N[C@@H](CC(=O)O)C(=O)N2 [5c],low-nanomolar ED50 values,8.9 ± 1.2,much less sensitive,0,0.5 ± 0.2,1.0 ± 0.2,7.8 ± 4.8,18.0 ± 5.2,31.1 ± 5.1,2.8 ± 0.2,did not diminish the potency
1.1 ± 1.4,1.7 ± 1.4,17.3 ± 6.8,18.4 ± 1.3,0.5 ± 0.02,52.8 ± 4.9,1.5 ± 0.4,"Nc1ccn([C@@H]2O[C@H](CO)[C@@H](O)C2(F)F)c(=O)n1 [compound 3, Gemcitabine, reference compound]",–,–,increased significantly,0,0.2 ± 0.4,1.5 ± 0.1,15.8 ± 0.3,44.7 ± 0.3,128.6 ± 2.8,–,no effect on potency
